Laboratory results from patent US11028068B2, “Somatostatin modulators and uses thereof” (Crinetics Pharmaceuticals, Inc., priority 2017, dated 2021).

Target: T1, human somatostatin receptor subtype 2 (Homo sapiens, UniProt P30874)
T1 construct: expressed in transfected cells; host or cells: CHO (Chinese hamster ovary) cells, cultured under G-418 selection
Experiment: cAMP assay (inhibition of cAMP activities via sst2 receptor)
Type: cell-based
Conditions: CHO cells expressing the human somatostatin receptor subtype 2, forskolin
Text: General overview: All five SSTR subtypes are Gi coupled G-protein coupled receptors (GPCRs) that lead to decreases in intracellular cyclic AMP (cAMP) when activated by an agonist. Therefore, measurement of intracellular cAMP levels can be used to assess whether compounds of the invention are agonists of SSTR subtypes (John Kelly, Troy Stevens, W. Joseph Thompson, and Roland Seifert, Current Protocols in Pharmacology, 2005,2.2.1-2.2). One example of an intracellular cAMP assay is described below.
One day prior to the assay, 40,000 Chinese hamster ovary (CHO) cells expressing the human somatostatin receptor subtype 2 are plated in each well of a 96-well tissue culture plate in DM-MEM growth media (Gibco) with the following additives: 10% fetal bovine serum (Gibco), 100 U/mL penicillin (Gibco), 100 ug/mL streptomycin (Gibco), 10 mM HEPES (Gibco), 1.2 mM sodium hydroxide, 0.5 mg/mL G-418 (Gibco)). The cells are cultured overnight at 37° C., 5% CO2 and 95% humidity. On the day of the assay, the media is aspirated and the cells are washed with 1X Dulbecco's phosphate buffered saline (Gibco). Next, 5 μL of assay buffer (1× Earle's Balanced Salt Solution (Gibco), 5 mM MgCl2, 10 mM HEPES, 0.1% bovine serum albumin, 0.2 mM 3-Isobutyl-1-methylxanthine (IBMX, Biomol Research Labs)) and forskolin is added. Various dilutions of the compounds of the invention are prepared in assay buffer and 5 μL of the dilutions are added to the cultured cells and incubated for 15 minutes at 37° C. (the final concentration of the compounds of the invention are typically 0-10,000 nM). 10 μL of lysis buffer (HRTF cAMP kit, Cisbio) containing cAMP detection and visualization antibodies are added and the assay is allowed incubate for 1-24 hours at room temperature. The intracellular cAMP concentrations are then measured using a commercially available detection kit (for example, the cAMP HTRF kit, Cisbio). The measured intracellular cAMP concentrations are plotted vs. the concentration of the compounds of the invention and the EC50 of the compounds are calculated using standard methods.

T1 sequence (P30874 whole entry): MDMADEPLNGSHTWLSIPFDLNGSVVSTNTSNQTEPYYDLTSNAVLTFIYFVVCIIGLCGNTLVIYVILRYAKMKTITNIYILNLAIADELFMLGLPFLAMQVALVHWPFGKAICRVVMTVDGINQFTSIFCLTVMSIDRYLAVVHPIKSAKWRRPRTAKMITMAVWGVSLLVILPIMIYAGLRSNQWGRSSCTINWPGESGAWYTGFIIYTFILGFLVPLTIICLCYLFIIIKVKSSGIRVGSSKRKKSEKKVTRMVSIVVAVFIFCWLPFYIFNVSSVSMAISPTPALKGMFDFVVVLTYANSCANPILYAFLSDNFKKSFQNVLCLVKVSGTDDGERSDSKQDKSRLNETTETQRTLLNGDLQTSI

Structure (SMILES) | EC50
CN(C[C@@H]1CCCN1)C(=O)c1c(N2CCC(CO)C2)cnc2ccc(-c3cccc(O)c3)nc12 (stereo partly drawn) [Compound 3-17, 3-[3-(hydroxymethyl)pyrrolidin-1-yl]-6-(3-hydroxyphenyl)-N-methyl-N-[(2S)-pyrrolidin-2-ylmethyl]-1,5-naphthyridine-4-carboxamide] | 100 to 1000 nM
CC#Cc1cnc2ccc(-c3cccc(O)c3)nc2c1C(=O)N(C)C[C@@H]1CCCN1 [Compound 3-18, 6-(3-hydroxyphenyl)-N-methyl-3-(prop-1-yn-1-yl)-N-((2S) -pyrrolidin-2-ylmethyl)-1,5-naphthyridine-4-carboxamide] | 100 to 1000 nM
CN(C[C@@H]1CCCN1)C(=O)c1c(N2CCO[C@H](c3ccccc3)C2)cnc2ccc(-c3cc(F)cc(C#N)c3)nc12 [Compound 3-42, 6-(3-cyano-5-fluorophenyl)-N-methyl-3-[(2R)-2-phenylmorpholin-4-yl]-N-[(2S) -pyrrolidin-2-ylmethyl]-1,5-naphthyridine-4-carboxamide] | 100 to 1000 nM
CN(C[C@@H]1CCCN1)C(=O)c1c(N2CCO[C@@H](c3ccccc3)C2)cnc2ccc(-c3cc(F)cc(C#N)c3)nc12 [Compound 3-47, 6-(3-cyano-5-fluorophenyl)-N-methyl-3-[(2S)-2-phenylmorpholin-4-yl]-N-[(2S) -pyrrolidin-2-ylmethyl]-1,5-naphthyridine-4-carboxamide] | 100 to 1000 nM
Cc1cc(F)cc(-c2cnc3ccc(-c4cccnc4)cc3c2C(=O)N(C)C[C@@H]2CCCN2)c1 [Compound 3-48, 3-(3-fluoro-5-methylphenyl)-N-methyl-6-(pyridin-3-yl)-N-[(2S)-pyrrolidin-2-ylmethyl]quinoline-4-carboxamide] | < 100 nM
CN(C[C@@H]1CCCN1)C(=O)c1c(N2CC(C)(C)OC(C)(C)C2)cnc2ccc(-c3cc(F)cc(C#N)c3)nc12 [Compound 3-49, 6-(3-cyano-5-fluorophenyl)-N-methyl-N-[(2S)-pyrrolidin-2-ylmethyl]-3-(2,2,6,6-tetramethylmorpholin-4-yl)-1,5-naphthyridine-4-carboxamide] | 100 to 1000 nM
CN(C[C@@H]1CCCN1)C(=O)c1c(N2CCc3cc(C(F)(F)F)ccc32)cnc2ccc(-c3cc(F)cc(C#N)c3)nc12 [Compound 3-54, 6-(3-cyano-5-fluorophenyl)-N-methyl-N-[(2S)-pyrrolidin-2-ylmethyl]-3-[5-(trifluoromethyl)-2,3-dihydro-1H-indol-1-yl]-1,5-naphthyridine-4-carboxamide] | 100 to 1000 nM
CN(C[C@@H]1CCCN1)C(=O)c1c(N2Cc3ccc(C(F)(F)F)cc3C2)cnc2ccc(-c3cc(F)cc(C#N)c3)nc12 [Compound 3-55, 6-(3-cyano-5-fluorophenyl)-N-methyl-N-[(2S)-pyrrolidin-2-ylmethyl]-3-[5-(trifluoromethyl)-2,3-dihydro-1H-isoindol-2-yl]-1,5-naphthyridine-4-carboxamide] | 100 to 1000 nM

Next, values leading:

EC50 | Structure (SMILES)
100 to 1000 nM | CN(C[C@@H]1CCCN1)C(=O)c1c(N2CC3CC3C2)cnc2ccc(-c3cc(F)cc(C#N)c3)nc12 (stereo partly drawn) [Compound 3-69, 3-{3-azabicyclo[3.1.0]hexan-3-yl}-6-(3-cyano-5-fluorophenyl)-N-methyl-N-[(2S) -pyrrolidin-2-ylmethyl]-1,5-naphthyridine-4-carboxamide]
100 to 1000 nM | CN(C[C@@H]1CCCN1)C(=O)c1c(N2CC3CCC(C2)O3)cnc2ccc(-c3cc(F)cc(C#N)c3)nc12 [Compound 3-70, 6-(3-cyano-5-fluorophenyl)-N-methyl-3-{8-oxa-3-azabicyclo[3.2.1]octan-3-yl}-N-[(2S) -pyrrolidin-2-ylmethyl]-1,5-naphthyridine-4-carboxamide]
100 to 1000 nM | CN(C[C@@H]1CCCN1)C(=O)c1c(N2CCC(F)(F)C2)cnc2ccc(-c3cc(F)cc(C#N)c3)nc12 [Compound 3-76, 6-(3-cyano-5-fluorophenyl)-3-(3,3-difluoropyrrolidin-1-yl)-N-methyl-N-[(2S)-pyrrolidin-2-ylmethyl]-1,5-naphthyridine-4-carboxamide]
